The values below come from patent publication US20220249404A1 (Nanjing Ruiying Runze Biopharmaceutical Technology Co., Inc., priority 2019, published 2022).

Like-named read-outs stand apart in the source and are kept apart here.

One data set relates to tyrosinase. Kind of data set: tyrosinase activity of zebrafish (L-DOPA oxidation method). It counts as in vivo.
The subject of data set [1] is zebrafish. Kind of data set: melanin content / effective rate on melanogenesis in zebrafish (NaOH lysis method). It counts as in vivo. Particulars: for efficacy of Cal (%): calculated using Formula 3; for efficacy of Flu (%): calculated using Formula 1.
Data set [2] concerns zebrafish. Kind of data set: survival rate of zebrafish (PTU35h embryos, drugs alone or in combination). The settings on record: for effect on survival rate of zebrafish: used alone; for IC50: Danio rerio, 25 h, read-out: IC50 (survival rate of zebrafish).
For data set [3], the system named is zebrafish. The settings on record: in vivo.
A further data set relates to normal melanocytes. Particulars: 10^−9-10^−5 mol/L; cited from earlier work.
The next data set deals with B16F10 cells. The settings on record: cited from earlier work.
For another data set, the system named is normal mice. The settings on record: oral administration, 20 mg/kg; cited from earlier work.
Another data set deals with C57BL/6 mice. The settings on record: oral administration, 2.6 mg/kg, stress-induced; cited from earlier work.
Data set [4] deals with normal human skin melanocytes. The settings on record: cited from earlier work.
For data set [5] the following is noted: long term oral administration, 20 mg/day; cited from earlier work.
The mark [6] stands for this setting: 0.005-1.28 μg/ml, compared with PTU35h treatment group.
The mark [7] stands for this setting: 0.2 mM PTU35h treatment group compared with normal control group.

`C=C1CC[C@H](O)C/C1=C/C=C1\CCC[C@]2(C)[C@@H]([C@H](C)CCCC(C)C)CC[C@@H]12` [VD3, vitamin D3]: the “tyrosinase activity of zebrafish” value in the data set with tyrosinase (setting [6]) was “no significant effect”. For the same compound, the “efficacy of VD3 (%)” value is on record as 3.72% in the data set with zebrafish [1] (VD3 0.02 μg/ml, calculated using Formula 2); 5.41% with zebrafish [1] (VD3 0.08 μg/ml, calculated using Formula 2); 11.07% with zebrafish [1] (VD3 0.32 μg/ml, calculated using Formula 2); 15.74% in the data set with zebrafish [1] (VD3 1.28 μg/ml, calculated using Formula 2); 3.28% in the data set on zebrafish [1] (zebrafish, in vivo). For the same compound, the “effective rate (%) on melanogenesis in zebrafish” value (shortened to “effective rate (%)”) in the data set with zebrafish [1] (used alone 0.02 μg/ml) was found to be 5.564%; in the data set on zebrafish [1] (used alone 0.08 μg/ml), 7.337%; in the data set with zebrafish [1] (used alone 0.32 μg/ml), 10.315%; in the data set with zebrafish [1] (used alone 1.28 μg/ml) it was 15.775%; in the data set on zebrafish [1] (zebrafish, in vivo) it was 3.346%. In addition, the “melanin content in zebrafish” value in the data set with zebrafish [1] (zebrafish, in vivo) was “no significant difference”. Also, in the data set on zebrafish [2] (5 μg/ml), the “effect on survival rate of zebrafish” value is recorded as “significantly inhibited”.
As for `NC(=S)Nc1ccccc1` [PTU, 1-phenyl-2-thiourea], the “tyrosinase activity of zebrafish” value with tyrosinase (setting [7]) was “decreased significantly”. Also, the “melanin content in zebrafish” value with zebrafish [1] (setting [7]) is “decreased significantly”.
With `C=C1/C(=C\C=C2/CCC[C@]3(C)[C@@H]([C@H](C)CC[C@@H](O)C(C)C)CC[C@@H]23)C[C@@H](O)C[C@@H]1O` [tacalcitol], the “effect on survival rate of zebrafish” value in the data set on zebrafish [3] is “significantly inhibited”. Further, the IC50 in the data set with zebrafish [2] was 4 µg/mL.
On to `C=C1/C(=C\C=C2/CCC[C@]3(C)[C@@H]([C@H](C)/C=C/[C@@H](O)C4CC4)CC[C@@H]23)C[C@@H](O)C[C@@H]1O` [calcipotriol], for which the “melanogenesis of normal melanocytes” value with normal melanocytes is recorded as “can promote melanogenesis”. Also, in the data set on tyrosinase (setting [6]), the “tyrosinase activity of zebrafish” value was “no significant effect”. The “efficacy of Cal (%)” value with zebrafish [1] (Cal 0.005 μg/ml) is on record as 3.42%; with zebrafish [1] (Cal 0.02 μg/ml) it was 3.85%; with zebrafish [1] (Cal 0.08 μg/ml) it was 5.50%; in the data set with zebrafish [1] (Cal 0.32 μg/ml), 10.77%; with zebrafish [1] (Cal 1.28 μg/ml) it was 11.17%. In addition, the “effective rate (%)” value in the data set on zebrafish [1] (used alone 0.005 μg/ml) is listed as 4.296%; in the data set on zebrafish [1] (used alone 0.02 μg/ml), 5.509%; in the data set on zebrafish [1] (used alone 0.08 μg/ml), 6.773%; in the data set with zebrafish [1] (used alone 0.32 μg/ml), 10.214%; in the data set with zebrafish [1] (used alone 1.28 μg/ml) it was 11.197%. Further, the “effect on survival rate of zebrafish” value with zebrafish [2] (5 μg/ml) was “significantly inhibited”. Besides, the 50% inhibitory concentration (IC50) in the data set with zebrafish [2] turned out to be 3.5 µg/mL.
As for `CNCCC(Oc1ccc(C(F)(F)F)cc1)c1ccccc1` (racemic) [fluoxetine], the “tyrosinase activity of zebrafish” value with tyrosinase (1.6-25.6 μg/ml, compared with PTU35h treatment group) was “increase the tyrosinase activity of zebrafish in a dose-dependent manner”. Also, in the data set on B16F10 cells, the “synthesis (melanin) of B16F10 cells” value was “can promote”. In addition, in the data set on normal mice, the skin coloring entry is reported as “can promote skin coloring”. For the same compound, the “melanin content in zebrafish” value with zebrafish [1] (6.4-25.6 μg/ml, compared with PTU35h treatment group) is “increase the melanin content in zebrafish in a dose-dependent manner”. Also, the “effective rate (%)” value is given as 4.962% in the data set on zebrafish [1] (Flu alone 0.1 μg/ml); 4.5% in the data set with zebrafish [1] (Flu alone 0.1 μg/ml, listed as Flu); 6.564% in the data set with zebrafish [1] (Flu alone 0.4 μg/ml); 10.260% in the data set with zebrafish [1] (Flu alone 1.6 μg/ml); 10.26% with zebrafish [1] (Flu alone 1.6 μg/ml, listed as Flu); 25.804% in the data set with zebrafish [1] (Flu alone 6.4 μg/ml). In the data set on zebrafish [1] (Flu alone 25.6 μg/ml), the “effective rate (%)” value is 26.536%. For the same compound, the “efficacy of Flu (%)” value in the data set on zebrafish [1] (listed as Flu 0.1 μg/ml) was 3.151%; in the data set on zebrafish [1] (listed as Flu 0.4 μg/ml) it was 3.218%; in the data set with zebrafish [1] (listed as Flu 1.6 μg/ml), 3.486%; in the data set on zebrafish [1] (listed as Flu 6.4 μg/ml), 4.547%; in the data set with zebrafish [1] (listed as Flu 25.6 μg/ml), 8.629%. Besides, the “skin discoloration of unhaired back” value in the data set with C57BL/6 mice is recorded as “can improve skin discoloration”. For the same compound, the “melanin of normal human skin melanocytes” value in data set [4] is listed as “can promote”. Further, the “effect on survival rate of zebrafish” value with zebrafish [2] (100 μg/ml) was “significantly inhibited”. Besides, the side effects result in data set [5] was “may cause side effects, such as insomnia, lethargy, suicide, neurological disorders”.
